“Also recorded” adds a separate entry of the source.
Tests used:
human MAFbx promoter = assay: Human MAFbx promoter luciferase reporter assay in C2C12 / C2C12.AR cells; type: cell-based
Excerpt: The reporter genes pMAF3.1, pMAF2.4, pMAF948, pMAF400, and pMAF400-241 express firefly luciferase under the control of promoter regions of the human MAFbx gene and are described in Example 1. The rARC562G vector, encoding rat AR with a C562->G mutation in the first zinc binding module that disrupts binding of AR to DNA was described by Palvimo et al. (Mol Endocrinol 7: 1399-1407, 1993) pAR.4RKM (expressing AR with 4 R/K->M mutations in the nuclear localization sequence that is unable to enter the nucleus) and pAR.ABC (lacking the ligand binding domain) were described by Zhou et al. (J Biol Chem 269: 13115-13123, 1994). The pBabe.puro retroviral backbone described by Morgenstern and Land (Nucleic Acids Res 18: 3587-3596, 1990) was modified by introduction of a Not1 site. The ARE reporter gene expressing firefly luciferase under control of the MMTV hormone response element, and pSP72hAR-1, containing an insert of the full-length cDNA clone of the human AR, were provided by Dr. Diane Robins (University of Michigan). pRL-CMV expressing Renilla luciferase was from Promega (Madison, Wis.).
C2C12 cells (American Type Culture Collection, Manassas, Va.) were maintained in Dulbeco's modified Eagle's Medium (DMEM) containing 10% fetal bovine serum (FBS) and penicillin (100 U/ml)/streptomycin (100 μg/ml) (growth medium). Cells were incubated at 37° C. in humidified air containing 10% CO2. 293T cells (American Type Culture Collection) were maintained in growth medium as above. Transfection was achieved using Lipofectamine-Plus (Invitrogen, Carlsbad, Calif.) using 200 ng total DNA per well.
Cells were seeded into wells of 24-well plates (5×10^5 cells/well) then maintained overnight in DMEM with 10% CDS-FBS. Cells were co-transfected with the various reporter genes and pRL-CMV. Cells were incubated in the transfection mixture overnight, then covered with DMEM supplemented with 10% charcoal-dextran-stripped FBS (CDS-FBS) and either ethanol (EtOH) or hormones dissolved in EtOH. Cells were maintained for an additional 24 hours, at which time both firefly and renilla luciferase activity were determined using the Dual Luciferase Assay (Promega, Madison, Wis.) and a Berthold 96-well plate luminometer. Firefly luciferase activities were normalized relative to renilla luciferase. Ethanol concentrations were less than 0.1%.

human IGF-1 promoter = assay: Human IGF-1 promoter luciferase reporter assay in HepG2 cells; type: cell-based
Excerpt: pREP4.hAR, expressing full length human AR, and pCMV.Sport.β-Gal, expressing β-galactosidase under a CMV promoter, were as described (Zhao et al., Steroids 69: 357-366, 2004). pcDNA5.rGR, expressing rat glucocorticoid receptor, was provided by Dr. Diane Robins (University of Michigan). The rARC562G vector expressing rat AR with a C562G mutation in the DBD, which results in a loss of DNA binding. The IGF-1 reporter genes pOLuc.1630, pOLuc1300, pOLuc926, pOLuc 320 were provided by Dr. Peter Rotwein (Oregon Health & Science University). These reporters expressed firefly luciferase under the control of 320 to 1630 bases upstream of the transcriptional start site of the human IGF-1 promoter as described in (Kim et al., Mol Endocrinol 5: 1964-1972, 1991). pEGX 4T-1 hAR2, expressing GST fused to the N-terminus of AR DNA-binding domain, was provided by Robert J. Matusik, Ph.D. (Vanderbuilt University Medical Center). pRL-CMV expressing Renilla luciferase was from Promega (Madison, Wis.).
HepG2 cells (ATCC, Bethesda, Md.) were maintained in Dulbecco's modified Eagle's medium (DMEM), supplemented with 10% fetal bovine serum (FBS) and antibiotics (penicillin 100 U/ml, streptomycin 100 μg/ml). Cells were seeded at 5×10^4 cells/per well into wells of 24-well plates containing DMEM supplemented with 10% charcoal-dextran stripped FBS (CDS-FBS). The next day, cells were transfected with a total of 300 ng DNA per well using Lipofectamine Plus (Invitrogen) with plasmids as indicated in the figure legends. Three hours after transfection, cells were covered with DMEM supplemented with 10% CDS-FBS and either hormone dissolved in ethanol, or ethanol, as indicated in the figures. […] After overnight incubation, activities of firefly and Renilla luciferase were determined using the Dual Luciferase Assay system (Promega).
Reporter plasmids expressing firefly luciferase under the control of upstream regions of the IGF-1 promoter were constructed by PCR amplification of segments of interest using primers shown in Table 2, using pOLuc-1630 as a template. The location of each amplified fragment is relative to the transcriptional start site. PCR amplification was conduced using a high fidelity Taq polymerase (Pfx, Invitrogen). PCR products were cloned into pCR2.1-TOPO TA (Invitrogen) and the sequences of the inserts were verified. Inserts were excised with Kpn I and Xho I, and were subcloned into pGL3-Promoter (Promega) at these same sites. PGL3-Promoter expresses firefly luciferase under the control of a minimal promoter.

MAFbx = MAFbx expression in gastrocnemius of rats infused with dexamethasone with or without testosterone (qPCR); type: in vivo; conditions: rat, dexamethasone 0.7 mg/kg/day infusion, 7 days
Description: Muscle was flash frozen on dry ice after excision. Total RNA was isolated by phenol:chloroform extraction (Chomczynski and Sacchi, Anal Biochem 162: 156-159, 1987) and further enriched using RNAeasy minicolumns (Qiagen) with digestion on the column with RNAse-free DNAse (Qiagen).
RNA was quantified by absorbance at 260 nm. One microgram of total RNA was used to prepare cDNA libraries using the High Capacity cDNA Archive Kit (Applied Biosystems, Foster City, Calif.). Libraries were diluted 25-fold with water. Real time PCR was performed using Taqman 2×PCR buffer (Applied Biosystems) and an Applied Biosystems 7500 thermocycler. Data were normalized relative to that for 18S RNA. Relative changes in expression were determined using the 2^−ΔΔCt method. Taqman Assay on Demand probes (Applied Biosystems) were used for all assays except rat 18S RNA, which was quantified using the following […]: Forward: […] (SEQ ID NO:15); Reverse: […] (SEQ ID NO:16); Probe: FAM-[…] (SEQ ID NO:17; Labeled with FAM and non-fluoresent quencher, NFQ, at 5′ and 3′ ends, repsectively).
Male Wistar rats weighing 250 gm were anesthetized with ketamine/xylazine followed by implantation Alzet miniosmotic pumps administering vehicle (propylene glycocol), dexamethasone (0.7 mg/kg/day), or dexamethasone plus testosterone (28 mg/kg/day). […]

MAFbx mRNA = MAFbx mRNA levels in AR6 / C2C12.AR cells (qPCR); type: cell-based, mouse; conditions: dexamethasone overnight
Description: (A) Rats were administered test agents as indicated in the figure for 7-days, at which time animals were sacrificed and MAFbx expression was determined in gastrocnemius muscles by qPCR. Data are mean values±SEM for at least 8 animals. * p<0.05 vs vehicle, t-test. (B) AR6 cells were seeded into 6-well plates and incubated overnight in growth medium. Medium was replaced with DMEM containing 2% horse serum followed by incubation for an additional 48 hours. Hormones or vehicle (EtOH) were added to the medium and cells were incubated overnight, at which time MAFbx mRNA levels were determined by qPCR and expressed as fold-induction versus levels in cells incubated with EtOH. Data are mean values±SEM for three determinations each performed in triplicate. * p<0.05 vs. EtOH (ANOVA). (C) Effect of testosterone on MAFbx mRNA half-life. C2C12.AR cells were incubated overnight in growth medium supplemented with testosterone or vehicle (EtOH). […] Levels of MAFbx mRNA are expressed as a percentage of those at time zero. […]
RNA was quantified by absorbance at 260 nm. […] Relative changes in expression were determined using the 2^−ΔΔCt method. Taqman Assay on Demand probes (Applied Biosystems) were used for all assays except rat 18S RNA, which was quantified using the following Assay on Demand Probes: Forward: […] […]

Structure (SMILES)	suppression of reporter under control of 3.1 of the MAFbx upstream promoter (human MAFbx promoter; C2C12 muscle cells, 5 μM)	expression of MAFbx reporter (general statement) (human MAFbx promoter; cells transduced with the MAFbx reporter construct)	activation of the upstream promoter of the human IGF-1 gene (human IGF-1 promoter; Hep G2 cells, FIG. 18)	increase in expression of MAFbx in gastrocnemius muscle (MAFbx)	increase in luciferase expression of pMAF3.1 reporter (human MAFbx promoter; C2C12.AR cells, dexamethasone)	increase in MAFbx mRNA expression (MAFbx mRNA)	activation of reporters incorporating ARE2 or both AREs (p3-13a and p3-32) (human IGF-1 promoter; HepG2 + GR, dexamethasone)	induction of luciferase expression, reporters incorporating ARE1 (p3-230 and p3-22) (human IGF-1 promoter; HepG2 + GR, dexamethasone)
C[C@]12COC(=O)C[C@@H]1CC[C@@H]1[C@@H]2CC[C@@]2(C)[C@H]1CC[C@]2(C)O [oxandrolone]	15%	does not decrease; also recorded: less effective	does not induce and not	–	–	–	–	–
C[C@@H]1C[C@H]2[C@@H]3CCC4=CC(=O)C=C[C@]4(C)[C@@]3(F)[C@@H](O)C[C@]2(C)[C@@]1(O)C(=O)CO [dexamethasone]	–	–	–	~4 fold	more than 1.5 fold	approximately 3 fold	5 fold	less than 2 fold

Source: patent US7429482B2, “Screening tools for discovery of novel anabolic agents” (United States of America as represented by the Department …, priority 2005, dated 2008)
